Values quoted from earlier work in patent US6783757B2, “Composition and method for increasing exorphin catabolism to treat autism” (Kirkman Group, Inc., priority 2000, dated 2004).

Tested on: DPPIV
Settings: cultured mouse intestinal wall cells (enterocyte cells)

O=C[C@H](O)[C@@H](O)[C@@H](O)[C@H](O)CO [galactose]
expression of DPPIV: increase the expression of DPPIV
